The text below walks through data of patent US8604046B2, “Substituted piperidine spiro pyrrolidinone and piperidinone, preparation and therapeutic use thereof” (Sanofi, priority 2008, dated 2013).

The structures appear in SMILES notation.

Assay [1] has as its target T1, rhesus H3 receptor (Macaca mulatta, UniProt Q865E1). In words: GTPγS radioligand binding assay, inhibition of rhesus H3 constitutive functional activity (inverse agonism). The assay is classed as biochemical, rhesus monkey (Macacca Mulatta). The arrangement: concentration or dose not given beside the values. The note with it: rhesus H3 cell membranes, relative to basal levels. Here is the method:
(§1) Rhesus H3 membranes were prepared from the Flp-In T-REx 293 Cell Line (Invitrogen) stably transfected with pcDNA5/FRT/TO (Invitrogen) containing the rhesus monkey (Macacca Mulatta) 445 amino acid H3 receptor. (Genbank #AY231164). Stably transfected cultures were amplified in tissue culture flasks by standard tissue culture methods and induced to express rhesus H3 by exposure to 500 ng/ml tetracycline (Cellgro) for 24 hours. After induction, cells were dissociated from flasks utilizing Cell Stripper (Cellgro). Cells were centrifuged (1K×g, 5 min) and pellet frozen in an ethanol-dry ice bath to disrupt cell membranes. Frozen cell pellet was re-suspended in 5 mM HEPES (pH 7.4, Invitrogen) at 10 ml/1000 cm2 of harvested cells. The cell suspension was drawn through an 18 gauge needle (2-3×) followed by a 23 gauge needle (2-3×) to further disrupt cell membranes. The cell suspension was centrifuged (40K×g, 30 min). Cell membrane pellet was re-suspended in 5 mM HEPES (pH 7.4, Invitrogen) at a final protein concentration of 10 mg/ml. Rhesus H3 membranes were stored under liquid nitrogen prior to use in [3H]-Methylhistamine and GTP S radioligand binding assays.

The target in assay [2] is T1, rhesus H3 receptor. In words: Rhesus H3 [3H]-methylhistamine radioligand binding assay. Set-up: species or system rhesus monkey (Macacca Mulatta). The conditions noted are these: [3H]-Methylhistamine 2 nM, rhesus H3 membranes, WGA SPA beads, Cheng-Prusoff. Here is the method:
as §1
Rhesus H3 radioligand binding assay was performed using rhesus H3 receptor membranes (prepared as described above), [3H]-Methylhistamine (Perkin Elmer) and WGA SPA beads (wheat germ agglutinin scintillation proximity assay) beads (Amersham). The assay was performed in 96-well Opti-Plates (Packard). Each reaction contained 50 μl rhesus H3 membranes (20-30 μg total protein), 50 μl WGA SPA beads (0.1 μg) and 50 μl of 83 Ci/mmol [^3H]-Methylhistamine (final concentration 2 nM) and 50 μl of tested compound. The compounds of this invention and/or vehicle were diluted with binding buffer from 10 mM DMSO stocks. Assay plates were sealed with TopSeal (Perkin Elmer) and mixed on shaker (25° C., 1 hour). Assay plates were read on TopCount scintillation counter (Packard). Results were analyzed by Hill transformation and Ki values were determined by Cheng-Prusoff equation.

T1 sequence (Q865E1 1-445): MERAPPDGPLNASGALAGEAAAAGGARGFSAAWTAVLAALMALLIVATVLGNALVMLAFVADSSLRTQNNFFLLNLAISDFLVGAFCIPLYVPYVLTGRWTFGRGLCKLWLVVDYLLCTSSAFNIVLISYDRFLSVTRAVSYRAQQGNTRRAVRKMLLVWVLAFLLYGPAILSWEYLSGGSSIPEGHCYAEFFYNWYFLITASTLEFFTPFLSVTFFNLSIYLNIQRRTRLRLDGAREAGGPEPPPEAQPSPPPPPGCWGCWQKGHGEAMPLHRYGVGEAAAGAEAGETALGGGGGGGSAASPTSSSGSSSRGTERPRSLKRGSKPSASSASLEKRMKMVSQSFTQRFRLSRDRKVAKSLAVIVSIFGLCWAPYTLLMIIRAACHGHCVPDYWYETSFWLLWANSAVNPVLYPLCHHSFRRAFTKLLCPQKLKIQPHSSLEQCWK

The Ki is a dissociation constant, usually derived from enzyme kinetics or from competition with a known ligand. On to `Cc1cc(N2CC[C@@H](N3CCC[C@H]3C)C2)ccc1N1CCC2(CCN(CC3CCCC3)CC2)C1=O` [Example 11, 8-Cyclopentylmethyl-2-[2-methyl-4-((2R,3′R)-2-methyl-[1,3′]bipyrrolidinyl-1′-l)-phenyl]-2,8-diaza-spiro[4.5]decan-1-one], for which, on rhesus H3 receptor [1], the “Inverse Agonism: % inhibition of Basal GTPγS binding in Rhesus H3” value (from here on “Inverse Agonism: % inhibition”) is reported as −29%. The compound also returned a Ki at rhesus H3 receptor [2] of 22 nM.
The corresponding values for `C[C@H]1CCCN1[C@H]1CCN(c2ccc(N3CCCC4(CCN(C(=O)C5CCCCC5)CC4)C3=O)c(F)c2)C1` [Example 30, 9-Cyclohexanecarbonyl-2-[2-fluoro-4-((2S,3′S)-2-methyl-[1,3′]bipyrrolidinyl-1′-yl)-phenyl]-2,9-diaza-spiro[5.5]undecan-1-one] are −22% and 0.7 nM.
With `Cc1cc(N2CC[C@@H](N3CCC[C@@H]3C)C2)ccc1N1CCC2(CCN(CC3CCCC3)CC2)C1=O` [Example 12, 8-Cyclopentylmethyl-2-[2-methyl-4-((2S,3′R)-2-methyl-[1,3′]bipyrrolidinyl-1′-l)-phenyl]-2,8-diaza-spiro[4.5]decan-1-one], the “Inverse Agonism: % inhibition” value on rhesus H3 receptor [1] is on record as −20%. The compound also had a Ki at rhesus H3 receptor [2] of 0.8 nM.
The corresponding values for `Cc1cc(N2CCC(N3CCCC3C)C2)ccc1N1CCC2(CCN(CC3CCCC3)CC2)C1=O` (stereo not shown) [Example 14, 8-Cyclopentylmethyl-2-[2-methyl-4-(2-methyl-[1,3′]bipyrrolidinyl-1′-l)-phenyl]-2,8-diaza-spiro[4.5]decan-1-one] are −31% and 5.6 nM.
In the case of `C[C@H]1CCCCN1[C@H]1CCN(c2ccc(N3CCC4(CCN(CC5CCOCC5)CC4)C3=O)c(F)c2)C1` [Example 59, 2-{2-Fluoro-4-[3-((2S,3′S)-2-methyl-piperidin-1-yl)-pyrrolidin-1-yl]-phenyl}-8-(tetrahydro-pyran-4-ylmethyl)-2,8-diaza-spiro[4.5]decan-1-one], on rhesus H3 receptor [1], the “Inverse Agonism: % inhibition” value is given as −19%. The compound also returned a Ki at rhesus H3 receptor [2] of 4.6 nM.
For `C[C@H]1CCCN1[C@H]1CCN(c2ccc(N3CCCC4(CCN(Cc5ccco5)CC4)C3=O)c(F)c2)C1` [Example 37, 2-[2-Fluoro-4-((2S,3′S)-2-methyl-[1,3′]bipyrrolidinyl-1′-yl)-phenyl]-9-furan-2-ylmethyl-2,9-diaza-spiro[5.5]undecan-1-one], at rhesus H3 receptor [1], the “Inverse Agonism: % inhibition” value is −17%. The same compound gave an inhibition constant Ki on rhesus H3 receptor [2] of 0.1 nM.
With `C[C@H]1CCCN1C1CCN(c2ccc(N3CCC4(CCN(CC5CCCC5)CC4)C3=O)c(F)c2)CC1` [Example 57, 8-Cyclopentyl methyl-2-{2-fluoro-4-[4-(2S-2-methyl-pyrrolidin-1-yl)-piperidin-1-yl]-phenyl}-2,8-diaza-spiro[4.5]decan-1-one], the “Inverse Agonism: % inhibition” value on rhesus H3 receptor [1] is −21%. For the same compound, the Ki at rhesus H3 receptor [2] came out at 0.1 nM.
Regarding `C[C@H]1CCCCN1[C@H]1CCN(c2ccc(N3CCC4(CCN(C(=O)C5CCCC5)CC4)C3=O)c(C(F)(F)F)c2)C1` [Example 55, 8-Cyclopentanecarbonyl-2-{4-[3-((2S,3′S)-2-methyl-piperidin-1-yl)-pyrrolidin-1-yl]-2-trifluoromethyl-phenyl}-2,8-diaza-spiro[4.5]decan-1-one], the “Inverse Agonism: % inhibition” value at rhesus H3 receptor [1] is listed as −27%. This compound also showed a Ki at rhesus H3 receptor [2] of 2.1 nM.
The corresponding values for `C[C@H]1CCCN1[C@H]1CCN(c2ccc(N3CCC4(CCN(C(=O)Cc5ccccc5)CC4)C3=O)c(C(F)(F)F)c2)C1` [Example 60, 2-[4-((2S,3′S)-2-Methyl-[1,3′]bipyrrolidinyl-1′-yl)-2-trifluoromethyl-phenyl]-8-phenylacetyl-2,8-diaza-spiro[4.5]decan-1-one] are −19% and 144 nM.
In the same order, the values of `C[C@H]1CCCCN1[C@H]1CCN(c2ccc(N3CCC4(CCN(C(=O)OC(C)(C)C)CC4)C3=O)cc2)C1` [Example 41, 2-{4-[3-((2S,3′S)-2-Methyl-piperidin-1-yl)-pyrrolidin-1-yl]-phenyl}-1-oxo-2,8-diaza-spiro[4.5]decane-8-carboxylic acid tert-butyl ester] are −14% and 5.6 nM.
`C[C@H]1CCCN1[C@H]1CCN(c2ccc(N3CCC4(CCN(CC5CCOCC5)CC4)C3=O)c(C(F)(F)F)c2)C1` [Example 68, 2-[4-((2S,3′S)-2-Methyl-[1,3′]bipyrrolidinyl-1′-yl)-2-trifluoromethyl-phenyl]-8-(tetrahydro-pyran-4-ylmethyl)-2,8-diaza-spiro[4.5]decan-1-one]: on rhesus H3 receptor [1], the “Inverse Agonism: % inhibition” value is given as −19%. Moreover, at rhesus H3 receptor [2], the affinity, expressed as Ki, was 4.2 nM.
In the same order, the values of `C[C@H]1CCCN1C1CCN(c2ccc(N3CCC4(CCN(C(=O)c5ccc(F)cc5)CC4)C3=O)cc2)CC1` [Example 51, 8-(4-Fluoro-benzoyl)-2-{4-[4-(2S-2-methyl-pyrrolidin-1-yl)-piperidin-1-yl]-phenyl}-2,8-diaza-spiro[4.5]decan-1-one] are −17% and 0.08 nM.
The corresponding values for `Cc1cc(N2CC[C@H](N3CCC[C@@H]3C)C2)ccc1N1CCC2(CCN(C(=O)c3ccc(OC(F)(F)F)cc3)CC2)C1=O` [Example 19, 2-[2-Methyl-4-((2S,3′S)-2-methyl-[1,3′]bipyrrolidinyl-1′-yl)-phenyl]-8-(4-trifluoromethoxy-benzoyl)-2,8-diaza-spiro[4.5]decan-1-one] are −19% and 1.4 nM.
Consider `C[C@H]1CCCCN1[C@H]1CCN(c2ccc(N3CCC4(CCN(C(=O)OC(C)(C)C)CC4)C3=O)c(F)c2)C1` [Example 43, 2-{4-[3-((2S,3′S)-2-Methyl-piperidin-1-yl)-pyrrolidin-1-yl]-2-fluoro-phenyl}-1-oxo-2,8-diaza-spiro[4.5]decane-8-carboxylic acid tert-butyl ester], for which the “Inverse Agonism: % inhibition” value on rhesus H3 receptor [1] was −19%. This compound came in with a Ki at rhesus H3 receptor [2] of 4.3 nM.
The corresponding values for `Cc1cc(N2CC[C@H](N3CCC[C@H]3C)C2)ccc1N1CCC2(CCN(C(=O)c3ccc(OC(F)(F)F)cc3)CC2)C1=O` [Example 15, 2-[2-Methyl-4-((2R,3′S)-2-methyl-[1,3′]bipyrrolidinyl-1′-yl)-phenyl]-8-(4-trifluoromethoxy-benzoyl)-2,8-diaza-spiro[4.5]decan-1-one] are −14% and 118 nM.
In the same order, the values of `Cc1cc(N2CCC(N3CCCC3C)C2)ccc1N1CCC2(CCN(C(=O)c3ccc(OC(F)(F)F)cc3)CC2)C1=O` (stereo not shown) [Example 18, 2-[2-Methyl-4-(2-methyl-[1,3′]bipyrrolidinyl-1′-yl)-phenyl]-8-(4-trifluoromethoxy-benzoyl)-2,8-diaza-spiro[4.5]decan-1-one] are −10% and 6.2 nM.
`C[C@H]1CCCN1[C@H]1CCN(c2ccc(N3CCCC4(CCN(C(=O)OC(C)(C)C)CC4)C3=O)cc2)C1` [Example 21, 2-[4-((2S,3′S)-2-Methyl-[1,3′]bipyrrolidinyl-1′-yl)-phenyl]-1-oxo-2,9-diaza-spiro[5.5]undecane-9-carboxylic acid tert-butyl ester]: the “Inverse Agonism: % inhibition” value on rhesus H3 receptor [1] is recorded as −28%. For the same compound, the Ki on rhesus H3 receptor [2] is 7.3 nM.
As for `COc1ccc(S(=O)(=O)N2CCC3(CCN(c4ccc(N5CC[C@H](N6CCC[C@@H]6C)C5)cc4C(F)(F)F)C3=O)CC2)cc1` [Example 65, 8-(4-Methoxy-benzenesulfonyl)-2-[4-((2S,3′S)-2-methyl-[1,3′]bipyrrolidinyl-1′-yl)-2-trifluoromethyl-phenyl]-2,8-diaza-spiro[4.5]decan-1-one], the “Inverse Agonism: % inhibition” value at rhesus H3 receptor [1] is −18%. The compound further registered a Ki on rhesus H3 receptor [2] of 10.6 nM.
The corresponding values for `Cc1cc(N2CC[C@@H](N3CCC[C@@H]3C)C2)ccc1N1CCC2(CCN(C(=O)OC(C)(C)C)CC2)C1=O` [Example 3, 2-[2-Methyl-4-((2S,3′R)-2-methyl-[1,3′]bipyrrolidinyl-1′-yl)-phenyl]-1-oxo-2,8-diaza-spiro[4.5]decane-8-carboxylic acid tert-butyl ester] are −23% and 7 nM.
For the compound `C[C@H]1CCCN1C1CCN(c2ccc(N3CCC4(CCN(S(=O)(=O)c5ccccc5)CC4)C3=O)cc2)CC1` [Example 50, 8-Benzenesulfonyl-2-{4-[4-(2S-2-methyl-pyrrolidin-1-yl)-piperidin-1-yl]-phenyl}-2,8-diaza-spiro[4.5]decan-1-one], the “Inverse Agonism: % inhibition” value on rhesus H3 receptor [1] is listed as −23%. For the same compound, at rhesus H3 receptor [2], affinity was put at a Ki of 0.24 nM.
